# Data published in patent publication US20130345268A1, “Methods and Compositions for the Treatment of RAS Associated Disorders” (The Trustees of Dartmouth College, priority 2009, published 2013).
# pIC50: −log10 of the molar value. Where two headings read alike, the source gives them in different places.
# Legend:
# [1] = tested on: U-87 MG GBM (glioblastoma) cells; assay: Growth of glioblastoma cells in vitro, Alamar Blue; format: cell-based; conditions: Homo sapiens, 72 h, U87-MG cells, three days, normalized to DMSO-treated wells, three independent experiments
# Description: FIG. 4 depicts the effects of two compounds active in NF1−/− MPNST cells on the growth of U-87 MG GBM (glioblastoma) cells in vitro. FIG. 4a depicts the effects of the compound of Formula I(a); FIG. 4b depicts the effects of the compound of Formula IV(c). U87-MG cells were seeded in 96 well plates at a density of 1000 per well in DMEM containing 10% fetal bovine serum. The next day, medium was removed and fresh medium containing 0.1% DMSO or compound was added back. Plates were incubated for three days at 37° C., 5% CO2. Cell growth was assessed with Alamar Blue with values normalized to the DMSO-treated wells. Values are mean of three wells. The AC50 for the compound of Formula Ia was 3.77 micromolar +/−0.7. The AC50 for the compound of Formula IV(c) was 0.97 micromolar +/−0.1. AC50 was calculated using data from three independent experiments.
# [2] = tested on: T265 (NF1 mutant MPNST/sarcoma cells); assay: In vitro growth of NF1 mutant MPNST cells, alamar blue, dose-response; format: cell-based; conditions: Homo sapiens
# Description: (§1) The NF1−/− MPNST line T265 used for the screen provides two additional readouts for the chemical approaches to suppress the phenotypes of NFI loss: activated Ras (Mahller et al., 2005) and activated MAPK (FIG. 1). In vitro growth assays of the two cell lines (NF1 positive and NF1 negative) are scaled down to 384 well plates. An Evotec Technologies plate::explorer uHTS system is used. MPNST cell lines T265 and STS26T in logarithmic growth phase are plated in separate 384 well plates at a density of 500 cells per well in Dulbecco's modified Eagle's medium (DMEM; Fisher Scientific; Pittsburgh, Pa.) supplemented with 10% Fetal Bovine Serum (Harlan; Indianapolis, Ind.) containing vehicle (DMSP, “Dimethyl Sulfoxide”) only or one of 13,031 candidate compounds at a concentration of 10 micromolar, a concentration of drug shown not to cause cell death of many human cell lines. The candidate compounds are selected to represent a cross section of compounds covering the diversity space resident in the available library, restricted to drug-like compounds, but evenly and consistently representative across this realm and representative of commercially available compounds. Compounds targeting GPCRs, kinases and other targets of known medical interest are also included. The cells are incubated with the compounds or 5 μg/ml doxorubicin as a positive control for 2 days. Growth is monitored by using the alamar blue method (Alley et al. 1988; Ahmed et al. 1994.) Metabolic activity of cells results in reduction of alamar blue and a large increase in alamar blue fluorescence, which correlates with cell number. Candidate compounds causing interference with fluorescence are eliminated. […] Appropriate control samples and statistical analyses are used.
# (§2) Confirmed hits that decreased viability of both cell lines were identified as possible therapeutic agents. A smaller population of hits selectively affected the non-NF1 cell line. These seven confirmed “hits,” or potential therapeutic agents, were tested using the same assay method at 10 concentrations, in triplicate, to give a dose-response and to determine the AC50 (the concentration at which 50% of the maximum activity or inhibition is achieved) for each compound. Using the initial screen, seven compounds are identified showing a significant differential growth inhibition of the mutant NF1 cells relative to wild type NF1 cells.
# [3] = tested on: STS26T (26T, NF1 wild type MPNST/sarcoma cells); assay: In vitro growth of NF1 wild type MPNST cells, alamar blue, dose-response; format: cell-based, human; conditions: for pIC50: Homo sapiens, STS-26T
# Description: as §1, §2
# [4] = tested on: cells lacking Ira2 and Erg6; assay: Growth of strains lacking Ira2 and Erg6, optical density at 595 nm; format: cell-based; conditions: Synthetic Complete media, 32C, 24 h, OD 595 nm
# Description: FIG. 3. […] Strains were grown overnight in Synthetic Complete media. 75 μL of culture at a starting optical density of 0.1 were added to a 96 well plate containing 75 μL of Synthetic Complete media with twice the desired final concentration of compound in 1% DMSO. Plates were incubated in a humidified 32C chamber, and scanned on an optical density plate reader at 595 nm after 24 h. The bars represent the mean of three wells, and the error bars represent ±2× standard error.
# [5] = 48 h, Table 3, T265 cells, alamar blue, 2 days, 10 concentrations in triplicate, read-out: T265 IC50
# [6] = Table 4, NF1 mutant sarcoma cells (T265), read-out: IC50, T265
# [7] = 48 h, Table 3, STS26T cells, alamar blue, 2 days, 10 concentrations in triplicate, read-out: 26T IC50
# [8] = Table 4, NF1 wild type (26T) sarcoma cells, read-out: IC50, 26T
compound,measurement,setting,value
Cc1ccc(NC(=O)C2=C(c3ccccc3)S(=O)(=O)CCS2(=O)=O)cc1 [Formula IV(c)],AC50,[1],0.97 µM
N=C(N)SCc1cn(-c2ccccc2)nc1-c1cccc(Br)c1 [Formula Ia],pIC50,[2]; [5],5.89
same,pIC50,[2]; [6],5.89
same,pIC50,[3]; [7],4.30
same,pIC50,[3]; [8],4.30
same,AC50,[1],3.77 µM
same,Inhibition of growth,[4],Inhibition of growth
CCCCc1ccc2nc(-c3ccccc3)cc(C(=O)NC(C(=O)NC(C)CCCN(CC)CC)C(C)C)c2c1 (centres unmarked) [III],pIC50,[2]; [5],5.52
same,26T IC50,"[3]; Table 3, STS26T cells, alamar blue, 2 days, 10 concentrations in triplicate",No Effect
Cc1ccc(Cn2c(=N)n(CC(O)c3ccc(Br)cc3)c3ccccc32)cc1 (centres unmarked) [VIII],pIC50,[2]; [5],5.96
same,pIC50,[2]; [6],5.96
same,pIC50,[3]; [7],4.71
same,pIC50,[3]; [8],4.71
Cc1ccc(Cn2c(=N)n(CC(=O)c3ccc(Br)cc3)c3ccccc32)cc1 [VII],pIC50,[2]; [5],7.11
same,pIC50,[3]; [7],7.25
CCc1cc(-c2ccccc2OS(=O)(=O)c2ccc3ccccc3c2)nn1CCNCCOc1ccccc1 [VI],pIC50,[2]; [5],5.35
same,pIC50,[3]; [7],5.72
CCc1cc(-c2ccccc2OS(=O)(=O)c2ccc3ccccc3c2)nn1CCNCCc1ccc(OC)c(OC)c1 [V],pIC50,[2]; [5],5.55
same,pIC50,[2]; [6],5.54
same,pIC50,[3]; [7],4.64
same,pIC50,[3]; [8],4.64
CCN(CC)C(=S)SCC(=O)n1c(C)cc(-c2ccccc2F)c1C [XI],pIC50,[2]; [5],5.77
same,pIC50,[3]; [7],6.00
